TGI data for nine compounds are collected here from PubChem BioAssay (NCI).

Test systems include CCRF-CEM leukemia; HT29 colon; K-562 leukemia; KM12 colon; LOX IMVI melanoma; M14 melanoma; NCI-H522 lung; NCI/ADR-RES ovarian; OVCAR-3 ovarian; RPMI-8226 leukemia; SF-268 CNS; SK-MEL-28 melanoma; SN12C renal; SR leukemia; TK-10 renal.
Holding throughout (experiment): NCI anticancer screen, dose series, 48 h

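Each compound was tested at five concentrations against cells in 96-well plates for 48 hours. At the TGI there is no net growth.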

With `C=CCOC(=O)C1=C(C)NC2=N[C@H](CCCCCCCCC)C[C@@H]3CCC1N23` (some centres not stated), the TGI was greater than 100 µM in the assay with CCRF-CEM leukemia; 72.2 µM in the assay with HT29 colon; greater than 100 µM in the assay on K-562 leukemia; greater than 100 µM with KM12 colon; 44.9 µM in the assay with LOX IMVI melanoma; 37.6 µM in the assay with M14 melanoma. For the same compound, the TGI is 34.7 µM in the assay with NCI-H522 lung; 56 µM in the assay on NCI/ADR-RES ovarian; 37.5 µM with OVCAR-3 ovarian; greater than 100 µM in the assay on RPMI-8226 leukemia; 39.9 µM with SF-268 CNS; 53.6 µM in the assay on SK-MEL-28 melanoma. In addition, the TGI in the assay with SN12C renal was 35.7 µM; in the assay with SR leukemia, greater than 100 µM; in the assay on TK-10 renal it was 39.4 µM.
As for `Cc1cc(=O)oc2cc(OCC(O)COC(C)C)ccc12` (configuration not stated), the TGI with CCRF-CEM leukemia, in the assay with HT29 colon, in the assay on K-562 leukemia, in the assay with KM12 colon, in the assay with LOX IMVI melanoma and with M14 melanoma was greater than 100 µM throughout. Also, the TGI in the assay with NCI-H522 lung, with NCI/ADR-RES ovarian, in the assay on OVCAR-3 ovarian, with RPMI-8226 leukemia, with SF-268 CNS and with SK-MEL-28 melanoma was greater than 100 µM throughout. Also, the TGI in the assay on SN12C renal, with SR leukemia and in the assay on TK-10 renal was greater than 100 µM in each case.
Take `CCN(CC)CCN(C)c1ccc(CO)c2c1C(=O)c1ccccc1S2=O` (configuration not stated): the TGI in the assay with CCRF-CEM leukemia is 9.96 µM; in the assay on HT29 colon, 2.95 µM; with K-562 leukemia it was greater than 20.3 µM; with KM12 colon it was 4.55 µM; in the assay with LOX IMVI melanoma, 3.66 µM; in the assay on M14 melanoma, 4.11 µM. The TGI in the assay on NCI-H522 lung came out at 4.23 µM; in the assay with NCI/ADR-RES ovarian, 3.48 µM; with OVCAR-3 ovarian, 4.11 µM; with RPMI-8226 leukemia, 11.8 µM; with SF-268 CNS, 35.9 µM; in the assay with SK-MEL-28 melanoma it was 10.2 µM. Besides, the values for the TGI with SN12C renal, in the assay with SR leukemia and with TK-10 renal were 28.9 µM, 5.53 µM and 32.3 µM, respectively.
As for `CC(=O)O[C@H]1C(=O)[C@@]2(C)[C@H]([C@H](OC(=O)c3ccccc3)[C@]3(O)C[C@H](OC(=O)[C@H](O)[C@@H](NC(=O)c4ccco4)c4ccccc4)C(C)=C1C3(C)C)[C@]1(OC(C)=O)CO[C@@H]1C[C@@H]2O`, the TGI is 0.0073 µM in the assay on CCRF-CEM leukemia; greater than 12.5 µM in the assay with HT29 colon; less than 0.00125 µM in the assay on K-562 leukemia; greater than 12.5 µM with KM12 colon; greater than 12.5 µM with LOX IMVI melanoma; greater than 12.5 µM in the assay with M14 melanoma. In addition, the TGI is greater than 12.5 µM with NCI-H522 lung; greater than 7.75 µM in the assay with NCI/ADR-RES ovarian; 0.00548 µM in the assay with OVCAR-3 ovarian; less than 0.00125 µM in the assay with RPMI-8226 leukemia; greater than 12.5 µM in the assay with SF-268 CNS; greater than 12.5 µM in the assay on SK-MEL-28 melanoma. Also, the TGI with SR leukemia and with TK-10 renal was greater than 12.5 µM throughout.
For the compound `Clc1ccc(CCN[C@H]2CCCC[C@H]2N2CCCC2)cc1Cl`, the TGI with CCRF-CEM leukemia is greater than 100 µM; in the assay with HT29 colon it was 49.9 µM; in the assay on K-562 leukemia, greater than 100 µM; in the assay on KM12 colon, 35.1 µM; in the assay with LOX IMVI melanoma it was 32.4 µM; in the assay with M14 melanoma, 30.3 µM. Besides, the TGI in the assay on NCI-H522 lung was 32.9 µM; in the assay with NCI/ADR-RES ovarian, greater than 100 µM; in the assay on OVCAR-3 ovarian it was 65.2 µM; in the assay on RPMI-8226 leukemia, 97.1 µM; with SF-268 CNS, greater than 100 µM; in the assay on SK-MEL-28 melanoma, 86.2 µM. The TGI in the assay on SN12C renal is 54.3 µM; in the assay with SR leukemia it was greater than 100 µM; with TK-10 renal, 22.9 µM.
For the compound `NC1CCC(N(CC(=O)O)CC(=O)O)C(N(CC(=O)O)CC(=O)O)C1` (configuration not stated), the TGI in the assay with CCRF-CEM leukemia, in the assay with HT29 colon, in the assay with K-562 leukemia, in the assay on KM12 colon, in the assay with LOX IMVI melanoma and in the assay with NCI-H522 lung was greater than 100 µM each time. For the same compound, the TGI in the assay on NCI/ADR-RES ovarian, in the assay with OVCAR-3 ovarian, in the assay with RPMI-8226 leukemia, in the assay with SF-268 CNS, in the assay on SK-MEL-28 melanoma and with SN12C renal was greater than 100 µM in each case. Besides, the TGI with SR leukemia and in the assay with TK-10 renal was greater than 100 µM throughout.
With `CC1=CC[C@@]2(C)CC[C@](O)(C(C)C)C2C(OC(=O)c2ccccc2)C1` (some centres not stated), the TGI with CCRF-CEM leukemia is 54.7 µM; in the assay on HT29 colon, 32.7 µM; in the assay with K-562 leukemia it was 47.8 µM; with KM12 colon it was 40.3 µM; with LOX IMVI melanoma, 42 µM; in the assay on M14 melanoma, 37.8 µM. Besides, the TGI in the assay with NCI-H522 lung was determined as 33.2 µM; in the assay with NCI/ADR-RES ovarian it was 41.5 µM; in the assay on OVCAR-3 ovarian, 31.8 µM; in the assay with RPMI-8226 leukemia, 37.2 µM; with SF-268 CNS, 51.7 µM; in the assay with SK-MEL-28 melanoma, 58.4 µM. Further, the TGI with SN12C renal stood at 44.9 µM; in the assay on SR leukemia, 97 µM; in the assay on TK-10 renal, 35.3 µM.
On to `CN(C)c1c(C2OC(CO)C(O)C2O)c(=O)c1=O` (configuration not stated), for which the TGI in the assay on CCRF-CEM leukemia, with HT29 colon, in the assay with K-562 leukemia, with KM12 colon, in the assay with LOX IMVI melanoma and in the assay on M14 melanoma was greater than 100 µM throughout. For the same compound, the TGI in the assay on NCI-H522 lung, in the assay on NCI/ADR-RES ovarian, in the assay with OVCAR-3 ovarian, in the assay with RPMI-8226 leukemia, in the assay on SF-268 CNS and in the assay with SK-MEL-28 melanoma was greater than 100 µM in each case. Besides, the TGI in the assay with SN12C renal, in the assay with SR leukemia and with TK-10 renal was greater than 100 µM each time.
Regarding `CCC(C)[C@@H](Nc1c(O)c2c(c(O)c1Cl)C(=O)C=CC2=O)C(=O)OC` (some centres not stated), the TGI with CCRF-CEM leukemia was 4.98 µM; in the assay on HT29 colon it was greater than 10 µM; in the assay with K-562 leukemia it was greater than 10 µM; in the assay with KM12 colon, greater than 10 µM; in the assay with LOX IMVI melanoma it was greater than 10 µM; in the assay on M14 melanoma it was 9.41 µM. The TGI was 4.92 µM in the assay with NCI-H522 lung; greater than 10 µM in the assay on NCI/ADR-RES ovarian; 9.1 µM in the assay on OVCAR-3 ovarian; 7.39 µM with RPMI-8226 leukemia; greater than 10 µM with SF-268 CNS; greater than 10 µM in the assay with SN12C renal. Besides, the TGI was 4.49 µM in the assay with SR leukemia and greater than 10 µM with TK-10 renal.
